Test results as given in patent US12516056B2, “Compounds for inhibition of janus kinase 1” (MANKIND PHARMA LTD., priority 2019, dated 2026).
Where two headings read alike, the source gives them in different places.

How the values were obtained:
Recombinant JAK1 = target: T1, Recombinant JAK1 (Homo sapiens, UniProt P23458); assay: JAK biochemical assay (LANCE Ultra TR-FRET), JAK1; conditions: recombinant JAK1, TR-FRET; read-out: Biochemical Assay (μM) JAK1
T1 construct: purchased Carna Biosciences
Summary of the method: (§1)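 % inhibition relative to vehicle was derived from TR-FRET signal proportional to ULight-substrate phosphorylation. Reactions used recombinant kinase in HEPES pH 7.5 buffer containing EGTA, MgCl2, DTT and Tween-20.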

[1] = tested on: STAT5 phosphorylation by GMCSF in TF-1 cells; assay: JAK cellular assay: STAT5 phosphorylation by GMCSF in TF-1 cells (HTRF); format: cell-based; conditions: TF-1 cells, GMCSF 5 ng/ml, pSTAT5 HTRF, read-out: Cell Based Assay (μM) TF-1/GMCSF/pSTAT5
Experimental: (§2) TF-1 cells were starved overnight in OptiMEM medium with 0.5% charcoal stripped fetal bovine serum, 0.1 mM nonessential amino acids (NEAA), 1 mM sodium pyruvate and without phenol red in CO2 incubator maintained at 37° c. Next day, cells were resuspended in RPMI without phenol red and dispensed into a 96 well plate at a final cell density of 1,20,000 cells per well. Compounds were diluted in DMSO and added to cells and incubated for 30 minutes in CO2 incubator maintained at 37° c. Final DMSO concentration in cell based assay was 0.2%. Human recombinant cytokines, IL-6 (30 ng/ml) and GMCSF (5 ng/ml) were added to the plate containing cells along with compound and incubated for 20 minutes with gentle tapping at every 5 minutes once. Compound mediated effects on STAT3 and STAT5 phosphorylation was measured in the lysates prepared by using CISBIO pSTAT3 and pSTAT5 detection kits by HTRF method. Background signal obtained from cells which were not activated with cytokines, was subtracted from vehicle controls and compound treated wells.

[2] = tested on: STAT3 phosphorylation by IL-6 in TF-1 cells; assay: JAK cellular assay: STAT3 phosphorylation by IL-6 in TF-1 cells (HTRF); format: cell-based; conditions: IL-6 30 ng/ml, pSTAT3 HTRF, read-out: Cell Based Assay (μM) TF-1/IL-6/pSTAT3
Experimental: as §2

Recombinant TYK2 = target: T2, Recombinant TYK2 (Homo sapiens, UniProt P29597); assay: JAK biochemical assay (LANCE Ultra TR-FRET), TYK2; conditions: recombinant TYK2, TR-FRET; read-out: Biochemical Assay (μM) TYK2
T2 construct: purchased Carna Biosciences
Summary of the method: as §1

Recombinant JAK3 = target: T3, Recombinant JAK3 (Homo sapiens, UniProt P52333); assay: JAK biochemical assay (LANCE Ultra TR-FRET), JAK3; conditions: recombinant JAK3, TR-FRET; read-out: Biochemical Assay (μM) JAK3
T3 construct: purchased Carna Biosciences
T3 sequence (P52333 1-1124): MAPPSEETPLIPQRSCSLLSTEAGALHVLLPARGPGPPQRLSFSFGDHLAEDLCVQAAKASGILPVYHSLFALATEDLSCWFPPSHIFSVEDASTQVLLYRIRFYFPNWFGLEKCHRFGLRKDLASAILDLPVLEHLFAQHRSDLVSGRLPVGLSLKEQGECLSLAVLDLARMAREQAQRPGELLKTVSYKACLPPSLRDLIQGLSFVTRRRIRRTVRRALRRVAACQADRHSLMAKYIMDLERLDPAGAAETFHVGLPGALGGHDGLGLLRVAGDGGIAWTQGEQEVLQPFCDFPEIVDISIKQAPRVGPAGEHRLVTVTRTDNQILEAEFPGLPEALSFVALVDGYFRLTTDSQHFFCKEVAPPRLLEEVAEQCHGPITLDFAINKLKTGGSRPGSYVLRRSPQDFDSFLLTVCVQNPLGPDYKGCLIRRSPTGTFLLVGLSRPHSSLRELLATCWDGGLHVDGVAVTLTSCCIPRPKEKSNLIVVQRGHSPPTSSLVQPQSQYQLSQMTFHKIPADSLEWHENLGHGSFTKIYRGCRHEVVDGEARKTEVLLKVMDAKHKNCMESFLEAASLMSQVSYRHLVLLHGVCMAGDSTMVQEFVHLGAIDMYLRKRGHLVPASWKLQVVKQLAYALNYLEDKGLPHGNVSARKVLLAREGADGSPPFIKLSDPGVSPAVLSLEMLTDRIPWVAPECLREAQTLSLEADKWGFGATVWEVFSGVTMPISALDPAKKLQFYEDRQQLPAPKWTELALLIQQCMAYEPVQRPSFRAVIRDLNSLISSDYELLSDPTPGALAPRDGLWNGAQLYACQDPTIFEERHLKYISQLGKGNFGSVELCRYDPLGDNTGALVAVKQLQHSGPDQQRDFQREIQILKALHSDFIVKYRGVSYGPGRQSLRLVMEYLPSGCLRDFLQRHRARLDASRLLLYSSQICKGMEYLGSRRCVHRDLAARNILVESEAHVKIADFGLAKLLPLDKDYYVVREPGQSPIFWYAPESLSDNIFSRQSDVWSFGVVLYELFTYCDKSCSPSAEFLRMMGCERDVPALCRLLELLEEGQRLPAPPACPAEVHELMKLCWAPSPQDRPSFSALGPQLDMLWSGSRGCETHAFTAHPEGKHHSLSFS
Summary of the method: as §1

Recombinant JAK2 = target: T4, Recombinant JAK2 (Homo sapiens, UniProt O60674); assay: JAK biochemical assay (LANCE Ultra TR-FRET), JAK2; conditions: recombinant JAK2, TR-FRET; read-out: Biochemical Assay (μM) JAK2
T4 construct: purchased Carna Biosciences
Summary of the method: as §1

T4 sequence (O60674 whole entry): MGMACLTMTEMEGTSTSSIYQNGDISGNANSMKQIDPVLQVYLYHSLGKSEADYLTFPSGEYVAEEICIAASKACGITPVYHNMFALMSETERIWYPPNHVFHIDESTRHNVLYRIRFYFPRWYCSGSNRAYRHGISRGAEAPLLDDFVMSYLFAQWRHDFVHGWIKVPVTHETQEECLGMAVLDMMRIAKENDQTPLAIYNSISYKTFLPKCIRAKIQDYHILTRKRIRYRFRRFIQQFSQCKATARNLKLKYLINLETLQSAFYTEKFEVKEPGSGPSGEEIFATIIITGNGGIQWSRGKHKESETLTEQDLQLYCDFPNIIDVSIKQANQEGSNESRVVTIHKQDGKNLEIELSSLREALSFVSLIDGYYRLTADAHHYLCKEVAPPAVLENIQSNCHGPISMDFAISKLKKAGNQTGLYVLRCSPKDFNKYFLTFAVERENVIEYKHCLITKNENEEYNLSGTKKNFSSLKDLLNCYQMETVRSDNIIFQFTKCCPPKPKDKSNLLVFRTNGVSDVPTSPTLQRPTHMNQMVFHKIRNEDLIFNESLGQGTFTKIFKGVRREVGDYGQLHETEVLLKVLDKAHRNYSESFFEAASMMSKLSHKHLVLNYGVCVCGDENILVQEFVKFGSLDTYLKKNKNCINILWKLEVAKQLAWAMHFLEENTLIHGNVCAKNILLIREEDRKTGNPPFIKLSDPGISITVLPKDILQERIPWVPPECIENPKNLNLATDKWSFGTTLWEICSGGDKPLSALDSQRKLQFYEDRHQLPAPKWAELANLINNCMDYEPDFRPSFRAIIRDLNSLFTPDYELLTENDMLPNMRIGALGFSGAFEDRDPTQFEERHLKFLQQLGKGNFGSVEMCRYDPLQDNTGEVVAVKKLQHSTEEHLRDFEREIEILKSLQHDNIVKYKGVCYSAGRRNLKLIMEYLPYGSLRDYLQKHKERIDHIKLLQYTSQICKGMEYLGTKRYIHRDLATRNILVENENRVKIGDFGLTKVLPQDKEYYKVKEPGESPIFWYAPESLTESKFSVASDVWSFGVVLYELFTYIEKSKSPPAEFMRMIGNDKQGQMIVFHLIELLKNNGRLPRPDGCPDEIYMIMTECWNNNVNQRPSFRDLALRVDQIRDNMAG
T2 sequence (P29597 whole entry): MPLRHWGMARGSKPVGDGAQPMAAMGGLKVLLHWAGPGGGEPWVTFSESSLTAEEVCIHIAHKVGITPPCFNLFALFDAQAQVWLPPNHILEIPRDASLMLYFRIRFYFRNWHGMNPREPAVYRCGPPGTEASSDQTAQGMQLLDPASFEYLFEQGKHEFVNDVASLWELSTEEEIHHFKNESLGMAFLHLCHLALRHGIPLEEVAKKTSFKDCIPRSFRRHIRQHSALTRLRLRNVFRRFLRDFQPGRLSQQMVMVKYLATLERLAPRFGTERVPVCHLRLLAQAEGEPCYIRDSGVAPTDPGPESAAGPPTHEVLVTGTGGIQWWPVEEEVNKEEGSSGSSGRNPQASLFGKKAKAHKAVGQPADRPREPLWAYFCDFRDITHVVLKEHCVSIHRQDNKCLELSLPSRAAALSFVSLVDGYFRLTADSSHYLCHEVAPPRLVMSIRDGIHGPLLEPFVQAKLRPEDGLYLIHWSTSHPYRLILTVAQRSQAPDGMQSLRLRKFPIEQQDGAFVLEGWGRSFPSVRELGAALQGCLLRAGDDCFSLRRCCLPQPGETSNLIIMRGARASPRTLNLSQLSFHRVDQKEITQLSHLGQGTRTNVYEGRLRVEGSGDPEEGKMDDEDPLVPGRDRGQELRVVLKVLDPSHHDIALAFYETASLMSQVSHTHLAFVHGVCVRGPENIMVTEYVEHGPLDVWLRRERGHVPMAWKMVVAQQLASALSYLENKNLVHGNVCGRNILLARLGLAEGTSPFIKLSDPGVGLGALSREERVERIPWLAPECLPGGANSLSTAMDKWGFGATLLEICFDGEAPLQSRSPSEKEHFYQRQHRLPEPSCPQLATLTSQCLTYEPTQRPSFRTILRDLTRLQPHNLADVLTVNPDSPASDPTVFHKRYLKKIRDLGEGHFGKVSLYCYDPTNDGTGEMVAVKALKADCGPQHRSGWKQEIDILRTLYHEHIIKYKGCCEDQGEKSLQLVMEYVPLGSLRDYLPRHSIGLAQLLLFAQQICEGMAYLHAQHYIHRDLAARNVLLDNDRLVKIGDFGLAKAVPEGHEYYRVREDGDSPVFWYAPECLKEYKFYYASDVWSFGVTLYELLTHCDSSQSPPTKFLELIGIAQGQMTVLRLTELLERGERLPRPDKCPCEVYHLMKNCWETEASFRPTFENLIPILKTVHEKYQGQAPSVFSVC
T1 sequence (P23458 whole entry): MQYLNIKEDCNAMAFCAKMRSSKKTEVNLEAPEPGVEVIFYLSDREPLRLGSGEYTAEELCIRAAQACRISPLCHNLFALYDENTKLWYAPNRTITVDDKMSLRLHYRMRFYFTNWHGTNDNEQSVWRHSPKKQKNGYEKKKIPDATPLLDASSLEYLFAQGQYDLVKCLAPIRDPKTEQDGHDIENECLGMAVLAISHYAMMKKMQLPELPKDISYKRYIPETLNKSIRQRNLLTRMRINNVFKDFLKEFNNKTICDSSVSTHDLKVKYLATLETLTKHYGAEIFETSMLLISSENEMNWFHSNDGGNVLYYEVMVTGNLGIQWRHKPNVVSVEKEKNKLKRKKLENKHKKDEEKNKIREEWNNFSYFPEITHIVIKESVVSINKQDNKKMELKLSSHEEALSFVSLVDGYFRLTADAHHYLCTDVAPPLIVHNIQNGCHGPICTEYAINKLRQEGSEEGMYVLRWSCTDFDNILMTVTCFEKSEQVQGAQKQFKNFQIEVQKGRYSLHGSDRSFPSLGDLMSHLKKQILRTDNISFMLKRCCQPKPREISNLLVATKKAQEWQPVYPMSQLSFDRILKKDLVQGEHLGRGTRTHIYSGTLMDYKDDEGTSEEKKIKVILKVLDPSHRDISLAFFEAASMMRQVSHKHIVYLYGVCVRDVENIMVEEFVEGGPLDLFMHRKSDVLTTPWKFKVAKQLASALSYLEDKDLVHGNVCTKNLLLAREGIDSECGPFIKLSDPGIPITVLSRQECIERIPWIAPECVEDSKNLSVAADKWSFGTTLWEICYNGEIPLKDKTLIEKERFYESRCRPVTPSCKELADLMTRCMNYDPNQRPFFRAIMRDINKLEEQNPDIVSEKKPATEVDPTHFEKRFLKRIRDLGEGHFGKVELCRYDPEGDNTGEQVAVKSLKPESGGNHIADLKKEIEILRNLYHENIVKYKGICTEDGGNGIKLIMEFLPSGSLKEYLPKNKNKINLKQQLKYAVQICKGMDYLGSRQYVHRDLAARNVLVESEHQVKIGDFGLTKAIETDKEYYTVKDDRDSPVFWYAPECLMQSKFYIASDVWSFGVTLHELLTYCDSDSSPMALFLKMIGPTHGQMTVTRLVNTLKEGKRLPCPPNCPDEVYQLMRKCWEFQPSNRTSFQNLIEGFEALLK

SMILES	IC50 (Recombinant JAK1)	IC50 ([1]; Homo sapiens)	IC50 ([2]; Homo sapiens, TF-1, TF-1 cells)	IC50 (Recombinant TYK2)	IC50 (Recombinant JAK3)	IC50 (Recombinant JAK2)	IC50 [1]	IC50 ([2]; TF-1 cells)
N#CC1CN(C(=O)n2cc(-c3ccnc4[nH]c(=O)[nH]c34)cn2)C1 [Example 1048, 1-(4-(2-oxo-2,3-dihydro-1H-imidazo[4,5-b]pyridin-7-yl)-1H-pyrazole-1-carbonyl)azetidine-3-carbonitrile]	< 0.5 µM	> 10 µM	> 10 µM	< 0.5 µM	< 0.5 µM	< 0.5 µM	–	–
CC(C)[C@H](C#N)NC(=O)n1cc(-c2ccnc3[nH]c(=O)[nH]c23)cn1 [Example 1049, N-((R)-1-cyano-2-methylpropyl)-4-(2,3-dihydro-2-oxo-1H-imidazo[4,5-b]pyridin-7-yl)-1H-pyrazole-1-carboxamide]	< 0.5 µM	> 10 µM	< 10 µM	< 0.5 µM	< 0.5 µM	< 0.5 µM	–	–
N#CCC(NC(=O)n1cc(-c2ccnc3[nH]c(=O)[nH]c23)cn1)C(F)(F)F (stereo not drawn) [Example 1050, N-(3-cyano-1,1,1-trifluoropropan-2-yl)-4-(2,3-dihydro-2-oxo-1H-imidazo[4,5-b]pyridin-7-yl)-1H-pyrazole-1-carboxamide]	< 0.5 µM	> 10 µM	< 10 µM	< 0.5 µM	< 0.5 µM	< 0.5 µM	–	–
N#CCC(NC(=O)n1cc(-c2ccnc3[nH]c(=O)[nH]c23)cn1)C1CC1 (stereo not drawn) [Example 1051, N-(2-cyano-1-cyclopropylethyl)-4-(2,3-dihydro-2-oxo-1H-imidazo[4,5-b]pyridin-7-yl)-1H-pyrazole-1-carboxamide]	< 0.5 µM	> 10 µM	< 10 µM	< 0.5 µM	> 1 µM	< 0.5 µM	–	–
CC(CC#N)NC(=O)n1cc(-c2ccnc3[nH]c(=O)[nH]c23)cn1 (stereo not drawn) [Example 1052, N-(1-cyanopropan-2-yl)-4-(2,3-dihydro-2-oxo-1H-imidazo[4,5-b]pyridin-7-yl)-1H-pyrazole-1-carboxamide]	< 0.5 µM	–	–	< 0.5 µM	> 0.5 µM	< 0.5 µM	> 10 µM	> 10 µM
N#C[C@H](NC(=O)n1cc(-c2ccnc3[nH]c(=O)[nH]c23)cn1)C1CC1 [Example 1054, N-((R)-cyano(cyclopropyl)methyl)-4-(2,3-dihydro-2-oxo-1H-imidazo[4,5-b]pyridin-7-yl)-1H-pyrazole-1-carboxamide]	> 10 µM	10 µM	> 1 µM	> 1 µM	> 1 µM	> 0.5 µM	–	–
N#CC1CCN(C(=O)n2cc(-c3ccnc4[nH]c(=O)[nH]c34)cn2)C1 (stereo not drawn) [Example 1055, 1-(4-(2-oxo-2,3-dihydro-1H-imidazo[4,5-b]pyridin-7-yl)-1H-pyrazole-1-carbonyl)pyrrolidine-3-carbonitrile]	> 1 µM	> 10 µM	> 10 µM	> 0.5 µM	> 1 µM	< 0.5 µM	–	–
N#CC1CC(NC(=O)n2cc(-c3ccnc4[nH]c(=O)[nH]c34)cn2)C1 (stereo not drawn) [Example 1056, N-(3-cyanocyclobutyl)-4-(2,3-dihydro-2-oxo-1H-imidazo[4,5-b]pyridin-7-yl)-1H-Pyrazole-1-carboxamide]	< 0.5 µM	> 10 µM	> 10 µM	> 0.5 µM	< 0.5 µM	< 0.5 µM	–	–
CC(NC(=O)n1cc(-c2ccnc3[nH]c(=O)[nH]c23)cn1)C(=O)N1CC(C#N)C1 (stereo not drawn) [Example 1058, N-(1-(3-cyanoazetidin-1-yl)-1-oxopropan-2-yl)-4-(2-oxo-2,3-dihydro-1H-imidazo[4,5-b]pyridin-7-yl)-1H-pyrazole-1-carboxamide]	> 1 µM	> 10 µM	> 10 µM	> 10 µM	> 10 µM	> 1 µM	–	–

More lines, now with the values ahead:

IC50 (Recombinant JAK1)	IC50 ([1]; Homo sapiens)	IC50 ([2]; Homo sapiens, TF-1, TF-1 cells)	IC50 (Recombinant TYK2)	IC50 (Recombinant JAK3)	IC50 (Recombinant JAK2)	IC50 [1]	IC50 ([2]; TF-1 cells)	SMILES
> 1 µM	> 10 µM	> 10 µM	> 10 µM	> 0.5 µM	> 0.5 µM	–	–	N#CC1CCN(C(=O)n2cc(-c3ccnc4[nH]cnc34)cn2)CC1 [Example 1067, 1-(4-(3H-imidazo[4,5-b]pyridin-7-yl)-1H-pyrazole-1-carbonyl)piperidine-4-carbonitrile]
> 1 µM	> 10 µM	> 10 µM	> 1 µM	> 1 µM	> 1 µM	–	–	CC(CN1CC(C#N)C1)NC(=O)n1cc(-c2ccnc3[nH]cnc23)cn1 (stereo not drawn) [Example 1068, N-(1-(3-cyanoazetidin-1-yl)propan-2-yl)-4-(3H-imidazo[4,5-b]pyridin-7-yl)-1H-pyrazole-1-carboxamide]
> 0.5 µM	> 10 µM	> 10 µM	> 0.5 µM	> 0.5 µM	< 0.5 µM	–	–	N#CC(NC(=O)n1cc(-c2ccnc3[nH]cnc23)cn1)c1ccccc1 (stereo not drawn) [Example 1070, N-(cyano(phenyl)methyl)-4-(3H-imidazo[4,5-b]pyridin-7-yl)-1H-pyrazole-1-carboxamide]
> 1 µM	> 10 µM	> 1 µM	> 0.5 µM	> 0.5 µM	> 0.5 µM	–	–	CC(C)[C@@H](C#N)NC(=O)n1cc(-c2ccnc3[nH]cnc23)cn1 [Example 1073, N-((S)-1-cyano-2-methylpropyl)-4-(3H-imidazo[4,5-b]pyridin-7-yl)-1H-pyrazole-1-carboxamide]
> 10 µM	> 10 µM	> 10 µM	> 1 µM	> 1 µM	> 1 µM	–	–	CC1CN(C(=O)n2cc(-c3ccnc4[nH]cnc34)cn2)CC1C#N (stereo not drawn) [Example 1074, 1-(4-(3H-imidazo[4,5-b]pyridin-7-yl)-1H-pyrazole-1-carbonyl)-4-methylpyrrolidine-3-carbonitrile]
0.046 µM	> 10 µM	3.1 µM	> 1 µM	< 0.5 µM	0.19 µM	–	–	N#CCc1coc(-n2cc(-c3ccnc4[nH]cnc34)cn2)n1 [Example 1075, 2-(2-(4-(3H-imidazo[4,5-b]pyridin-7-yl)-1H-pyrazol-1-yl)oxazol-4-yl)acetonitrile]
0.037 µM	> 10 µM	6 µM	> 1 µM	< 0.5 µM	0.085 µM	–	–	N#CCc1csc(-n2cc(-c3ccnc4[nH]cnc34)cn2)n1 [Example 1076, 2-(2-(4-(3H-imidazo[4,5-b]pyridin-7-yl)-1H-pyrazol-1-yl)thiazol-4-yl)acetonitrile]
> 1 µM	> 10 µM	> 10 µM	> 10 µM	> 1 µM	> 1 µM	–	–	c1cc(-c2cnn(Cc3cnco3)c2)c2nc[nH]c2n1 [Example 1077, 7-(1-((oxazol-5-yl)methyl)-1H-pyrazol-4-yl)-3H-imidazo[4,5-b]pyridine]
